In patent US10703765B2 (priority 2014, dated 2020):
Counter-ions that a name gives are not always drawn.

target: human σ1 receptor (Homo sapiens, UniProt Q99720); experiment: biochemical; format: binding; design: μ and σ1 dual binding: key to the marks not given beside the values; settings: not given
Sequence (Q99720 whole entry): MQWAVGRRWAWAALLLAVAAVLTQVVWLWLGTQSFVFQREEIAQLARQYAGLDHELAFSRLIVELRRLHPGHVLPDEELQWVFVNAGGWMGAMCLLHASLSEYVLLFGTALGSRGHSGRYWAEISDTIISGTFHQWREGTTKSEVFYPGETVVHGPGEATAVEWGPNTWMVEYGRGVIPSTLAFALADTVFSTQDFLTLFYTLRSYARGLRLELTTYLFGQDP

SMILES | Ki [nM] | μ and σ1 dual binding
COCC1OC2(CCN(CCc3ccccc3F)CC2)CN(c2ccccc2F)C1=O (centres unmarked) [Example 136, 9-(2-fluorophenethyl)-4-(2-fluorophenyl)-2-(methoxymethyl)-1-oxa-4,9-diazaspiro[5.5]undecan-3-one hydrochloride] | < 500 | 
Cc1ncsc1CCN1CCC2(CC1)CN(c1ccccc1)C(=O)C(C)O2 (centres unmarked) [Example 61, 2-methyl-9-(2-(4-methylthiazol-5-yl)ethyl)-4-phenyl-1-oxa-4,9-diazaspiro[5.5]undecan-3-one hydrochloride] | < 500 | 
CC(=O)Nc1cccc(N2CC3(CCN(CCc4ccccc4)CC3)OC(C)C2=O)c1 (centres unmarked) [Example 242, N-(3-(2-methyl-3-oxo-9-phenethyl-1-oxa-4,9-diazaspiro[5.5]undecan-4-yl)phenyl)acetamide] |  | ++
CC1OC2(CCN(CCc3ccccc3)CC2)CN(Cc2nccs2)C1=O (centres unmarked) [Example 160, 2-methyl-9-phenethyl-4-(thiazol-2-ylmethyl)-1-oxa-4,9-diazaspiro[5.5]undecan-3-one hydrochloride] | < 100 | 
CC1OC2(CCN(CCC3CCOCC3)CC2)CN(c2ccccc2)C1=O.Cl (centres unmarked) [Example 131, 2-methyl-4-phenyl-9-(2-(tetrahydro-2H-pyran-4-yl)ethyl)-1-oxa-4,9-dizaspiro[5.5]undecan-3-one hydrochloride] |  | ++
C[C@@H]1OC2(CCN(CCc3ccccc3F)CC2)CN(c2cnccc2C(F)(F)F)C1=O.Cl [Example 127a, (S)-9-(2-fluorophenethyl)-2-methyl-4-(4-(trifluoromethyl)pyridin-3-yl)-1-oxa-4,9-diazaspiro[5.5]undecan-3-one hydrochloride] |  | ++
C[C@H]1OC2(CCN(C[C@H](O)c3ccccc3)CC2)CN(c2ccccc2)C1=O [Example 151a, (R)-9-((R)-2-hydroxy-2-phenylethyl)-2-methyl-4-phenyl-1-oxa-4,9-diazaspiro[5.5]undecan-3-one] | < 500 | 
COCC1CN(c2ccccc2)CC2(CCN(CCc3ccccc3)CC2)O1 (centres unmarked) [Example 319, 2-(methoxymethyl)-9-phenethyl-4-phenyl-1-oxa-4,9-diazaspiro[5.5]undecane hydrochloride] | < 500 | 
CN(C)C(=O)CC1OC2(CCN(CCc3ccccc3)CC2)CN(c2ccccc2)C1=O.Cl (centres unmarked) [Example 272, N,N-dimethyl-2-(3-oxo-9-phenethyl-4-phenyl-1-oxa-4,9-diazaspiro[5.5]undecan-2-yl)acetamide hydrochloride] |  | ++
OCCC1CN(c2ccccc2)CC2(CCN(CCc3ccccc3)CC2)O1 (centres unmarked) [Example 323, 2-(9-phenethyl-4-phenyl-1-oxa-4,9-diazaspiro[5.5]undecan-2-yl)ethanol hydrochloride] | < 500 | 
CC1OC2(CCN(CCc3cccc(N)n3)CC2)CN(c2ccccc2)C1=O (centres unmarked) [Example 29, 9-(2-(6-aminopyridin-2-yl)ethyl)-2-methyl-4-phenyl-1-oxa-4,9-diazaspiro[5.5]undecan-3-one] | < 500 | 

same assay, conditions: combined class from Ki-σ1 (human σ1 receptor, A1) and Ki-μ (human μ-opioid receptor, A2) radioligand binding

SMILES | μ and σ1 dual binding
CC(C)OCCN1CCC2(CC1)CN(Cc1ccc(C(F)(F)F)cn1)C(=O)C(C)O2 (centres unmarked) [Example 125, 9-(2-isopropoxyethyl)-2-methyl-4-((5-(trifluoromethyl)pyridin-2-yl)methyl)-1-oxa-4,9-diazaspiro[5.5]undecan-3-one] | ++
O=C1COC2(CCN(CCc3ccccc3)CC2)CN1c1ccccc1O [Example 286, 4-(2-hydroxyphenyl)-9-phenethyl-1-oxa-4,9-diazaspiro[5.5]undecan-3-one] | ++

same assay, conditions: read-out: μ and σ1 dual binding

SMILES | Ki [nM]
CC1OC2(CCN(CCc3ncccc3Cl)CC2)CN(Cc2ccc(F)cn2)C1=O (centres unmarked) [Example 46, 9-(2-(3-chloropyridin-2-yl)ethyl)-4-((5-fluoropyridin-2-yl)methyl)-2-methyl-1-oxa-4,9-diazaspiro[5.5]undecan-3-one hydrochloride] | < 500
NC(=O)Nc1cccc(CCN2CCC3(CC2)CN(Cc2ccc(C(F)(F)F)cn2)C(=O)C2(CC2)O3)c1 [Example 263, {3-[2-(13-oxo-12-{[5-(trifluoromethyl)pyridin-2-yl]methyl}-4-oxa-8,12-diazadispiro[2.1.5.3]tridecan-8-yl)ethyl]phenyl}urea] | < 500
CC1OC2(CCN(CCc3ccccc3)CC2)CN(CC(=O)N2CCOCC2)C1=O (centres unmarked) [Example 170, 2-methyl-4-(2-morpholino-2-oxoethyl)-9-phenethyl-1-oxa-4,9-diazaspiro[5.5]undecan-3-one hydrochloride] | > 500
CC1OC2(CCN(CCc3ccc(C(=O)N(C)C)cc3)CC2)CN(c2ccccc2)C1=O (centres unmarked) [Example 273, N,N-dimethyl-4-(2-(2-methyl-3-oxo-4-phenyl-1-oxa-4,9-diazaspiro[5.5]undecan-9-yl)ethyl)benzamide hydrochloride] | > 500
O=C1N(c2ccccc2)CC2(CCN(CCc3ccccc3)CC2)OC12CC2 [Example 225, 8-phenethyl-12-phenyl-4-oxa-8,12-diazadispiro[2.1.5.3]tridecan-13-one] | < 100
CC1OC2(CCN(CCn3nccc3N)CC2)CN(c2ccccc2)C1=O (centres unmarked) [Example 305, 9-(2-(5-amino-1H-pyrazol-1-yl)ethyl)-2-methyl-4-phenyl-1-oxa-4,9-diazaspiro[5.5]undecan-3-one hydrochloride] | > 500
CC1CN(Cc2nccn2C)CC2(CCN(CCc3ccccc3)CC2)O1 (centres unmarked) [Example 327, 2-methyl-4-((1-methyl-1H-imidazol-2-yl)methyl)-9-phenethyl-1-oxa-4,9-diazaspiro[5.5]undecane dihydrochloride] | < 500
CC1OC2(CCN(CCc3cccc(N)n3)CC2)CN(c2cnccc2C(F)(F)F)C1=O (centres unmarked) [Example 42, 9-(2-(6-aminopyridin-2-yl)ethyl)-2-methyl-4-(4-(trifluoromethyl)pyridin-3-yl)-1-oxa-4,9-diazaspiro[5.5]undecan-3-one hydrochloride] | > 500
Nc1cccc(CCN2CCC3(CC2)CN(Cc2ccccc2)CCO3)c1 [Example 338, 3-(2-(4-benzyl-1-oxa-4,9-diazaspiro[5.5]undecan-9-yl)ethyl)aniline] | > 500
COc1ccc(CN2CC3(CCN(CCc4ccccc4F)CC3)OC3(CC3)C2=O)cc1 [Example 148, 8-(2-fluorophenethyl)-12-(4-methoxybenzyl)-4-oxa-8,12-diazadispiro[2.1.5.3]tridecan-13-one] | > 500
CC1OC2(CCN(CCc3ccccc3)CC2)CN(c2ncccc2C(F)(F)F)C1=O (centres unmarked) [Example 218, 2-methyl-9-phenethyl-4-(3-(trifluoromethyl)pyridin-2-yl)-1-oxa-4,9-diazaspiro[5.5]undecan-3-one] | < 500
CC1OC2(CCN(CCc3ccccc3)CC2)CN(Cc2cscn2)C1=O (centres unmarked) [Example 164, 2-methyl-9-phenethyl-4-(thiazol-4-ylmethyl)-1-oxa-4,9-diazaspiro[5.5]undecan-3-one] | < 100
CN(C)C(=O)CCN1CC2(CCN(CCc3ccccc3)CC2)OC2(CC2)C1=O [Example 182, N,N-dimethyl-3-[13-oxo-8-phenethyl-4-oxa-8,12-diazadispiro[2.1.5.3]tridecan-12-yl]propanamide hydrochloride] | > 500
CC1OC2(CCN(CC(=O)N3CCCCC3)CC2)CN(c2ccccc2)C1=O (centres unmarked) [Example 129, 2-methyl-9-(2-oxo-2-(piperidin-1-yl)ethyl)-4-phenyl-1-oxa-4,9-diazaspiro[5.5]undecan-3-one] | > 500
COc1ccccc1CCN1CCC2(CC1)CN(Cc1ccccn1)C(=O)CO2 [Example 79, 9-(2-methoxyphenethyl)-4-(pyridin-2-ylmethyl)-1-oxa-4,9-diazaspiro[5.5]undecan-3-one] | < 500
CC1OC2(CCN(CCc3ccc([N+](=O)[O-])cn3)CC2)CN(c2ccccc2F)C1=O (centres unmarked) [Example 24, 4-(2-fluorophenyl)-2-methyl-9-(2-(5-nitropyridin-2-yl)ethyl)-1-oxa-4,9-diazaspiro[5.5]undecan-3-one] | > 500
COC(=O)CCN1CC2(CCN(CCc3ccccc3)CC2)OC2(CC2)C1=O [Example 186, methyl 3-(13-oxo-8-phenethyl-4-oxa-8,12-diazadispiro[2.1.5.3]tridecan-12-yl)propanoate] | > 500
CC1OC2(CCN(CCn3ccc(N)n3)CC2)CN(c2ccccc2)C1=O (centres unmarked) [Example 237, 9-(2-(3-amino-1H-pyrazol-1-yl)ethyl)-2-methyl-4-phenyl-1-oxa-4,9-diazaspiro[5.5]undecan-3-one hydrochloride] | > 500
Fc1cccnc1CCN1CCC2(CC1)CN(Cc1ccccc1)CC1(CC1)O2 [Example 344, 12-benzyl-8-(2-(3-fluoropyridin-2-yl)ethyl)-4-oxa-8,12-diazadispiro[2.1.5.3]tridecane] | < 100
O=C(O)CC1OC2(CCN(CCc3ccccc3)CC2)CN(c2ccccc2)C1=O (centres unmarked) [Example 270, 2-(3-oxo-9-phenethyl-4-phenyl-1-oxa-4,9-diazaspiro[5.5]undecan-2-yl)acetic acid hydrochloride] | > 500
O=C1COC2(CCN(CCc3cccc([N+](=O)[O-])c3)CC2)CN1Cc1ccc(C(F)(F)F)cn1 [Example 103, 9-(3-nitrophenethyl)-4-((5-(trifluoromethyl)pyridin-2-yl)methyl)-1-oxa-4,9-diazaspiro[5.5]undecan-3-one] | > 500
CC1OC2(CCN(CCc3ccccc3)CC2)CN(Cc2ccccc2F)C1=O (centres unmarked) [Example 154, 4-(2-fluorobenzyl)-2-methyl-9-phenethyl-1-oxa-4,9-diazaspiro[5.5]undecan-3-one hydrochloride] | < 100
CC1OC2(CCN(CCc3ccccc3)CC2)CN(c2cnccc2C(F)(F)F)C1=O (centres unmarked) [Example 214, 2-methyl-9-phenethyl-4-(4-(trifluoromethyl)pyridin-3-yl)-1-oxa-4,9-diazaspiro[5.5]undecan-3-one hydrochloride] | < 100
COC[C@H]1OC2(CCN(CCc3ccccc3)CC2)CN(c2ccccc2)C1=O [Example 12b, (R)-2-(methoxymethyl)-9-phenethyl-4-phenyl-1-oxa-4,9-diazaspiro[5.5]undecan-3-one] | < 100
COC(=O)CCN1CCC2(CC1)CN(c1ccccc1)C(=O)C1(CC1)O2 [Example 348, methyl 3-(13-oxo-12-phenyl-4-oxa-8,12-diazadispiro[2.1.5.3]tridecan-8-yl)propanoate] | > 500
